Assay results reported in patent US6737383B1, “Herbicidal oxadiazolidines” (priority 1999, dated 2004).

What was measured:
[1] = system: rice; assay: Test B flood test rice; format: in vivo, Oryza sativa
Procedure, shortened: (§1)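 Flood test on plants grown to the 2-leaf stage; treated plants kept in greenhouse twelve to sixteen days, then visually rated against controls on a 0 (no effect) to 10 (complete control) scale.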

[2] = system: giant foxtail; assay: Test B pre/postemergence giant foxtail; format: in vivo, Setaria faberii
Procedure, shortened: (§2)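 Herbicidal effect was estimated by eye on a ten-point control scale after plants spent twelve to sixteen days in a greenhouse following soil or foliar treatment. Foliar sprays targeted plants at one to four leaves; all doses were formulated in a non-phytotoxic solvent with surfactant.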

[3] = system: crabgrass; assay: Test B pre/postemergence crabgrass; format: in vivo, Digitaria sanguinalis
Procedure, shortened: as §2

[4] = system: purple nutsedge; assay: Test B pre/postemergence purple nutsedge; format: in vivo, Cyperus rotundus
Procedure, shortened: as §2

[5] = system: bamyardgrass; assay: Test B flood test barnyardgrass; format: in vivo, Echinochloa crus-galli
Procedure, shortened: as §1

[6] = system: surinam grass; assay: Test B pre/postemergence surinam grass; format: in vivo, Brachiaria decumbens
Procedure, shortened: as §2

[7] = system: sugar beet; assay: Test B pre/postemergence sugar beet; format: in vivo, Beta vulgaris
Procedure, shortened: as §2

[8] = system: blackgrass; assay: Test B pre/postemergence blackgrass; format: in vivo, Alopecurus myosuroides
Procedure, shortened: as §2

[9] = system: bedstraw; assay: Test B pre/postemergence bedstraw; format: in vivo, Galium aparine
Procedure, shortened: as §2

[10] = system: corn; assay: Test B pre/postemergence corn; format: in vivo, Zea mays
Procedure, shortened: as §2

[11] = system: smallflower flatsedge; assay: Test B flood test smallflower flatsedge; format: in vivo, Cyperus difformis
Procedure, shortened: as §1

[12] = system: morningglory; assay: Test B pre/postemergence morningglory; format: in vivo, Ipomoea hederacea
Procedure, shortened: as §2

[13] = system: wheat; assay: Test B pre/postemergence wheat; format: in vivo, Triticum aestivum
Procedure, shortened: as §2

[14] = system: pigweed; assay: Test B pre/postemergence pigweed; format: in vivo, Amaranthus retroflexus
Procedure, shortened: as §2

[15] = system: rape; assay: Test B pre/postemergence rape; format: in vivo, Brassica napus
Procedure, shortened: as §2

[16] = system: wild oat; assay: Test B pre/postemergence wild oat; format: in vivo, Avena fatua
Procedure, shortened: as §2

[17] = Rate 62 g/ha, headed Pre-emergence (flood test species), scale 0 to 10 (0 no effect, 10 complete control)
[18] = Rate 125 g/ha, Pre-emergence, flood test species, scale 0 to 10 where 0 is no effect and 10 is complete control
[19] = Rate 250 g/ha, Pre-emergence, flood-test species, scale 0 to 10, 0 is no effect, 10 is complete control
[20] = Rate 500 g/ha, Pre-emergence, flood test species, scale 0 to 10 (0 no effect, 10 complete control)
[21] = Preemergence, Rate 31 g/ha, visual rating, scale 0 to 10 (0 no effect, 10 complete control)
[22] = Preemergence, Rate 62 g/ha, scale of 0 to 10 where 0 is no effect and 10 is complete control
[23] = Preemergence, Rate 250 g/ha, scale of 0 to 10 where 0 is no effect and 10 is complete control
[24] = Preemergence, Rate 500 g/ha, scale of 0 to 10 where 0 is no effect and 10 is complete control
[25] = Rate 31 g/ha, Postemergence, scale 0 to 10
[26] = Rate 62 g/ha, Postemergence, scale of 0 to 10 where 0 is no effect and 10 is complete control
[27] = Rate 125 g/ha, Postemergence, scale 0 to 10
[28] = Rate 125 g/ha, Preemergence, scale of 0 to 10 where 0 is no effect and 10 is complete control
[29] = Rate 500 g/ha, Postemergence, scale 0 to 10, 0 no effect, 10 complete control

## CC(C)N(C(=O)n1oc(=O)n(N(C)C)c1=O)c1ccccc1 [Compound 225]
[1]; [17]
  Rice plant response rating: 0
[1]; [18]
  Rice plant response rating: 0
[1]; [19]
  Rice plant response rating: 0
[1]; [20]
  Rice plant response rating: 0
[2]; [21]
  Giant foxtail plant response rating: 8
[2]; [22]
  Giant foxtail plant response rating: 8
[2]; [23]
  Giant foxtail plant response rating: 10
[2]; [24]
  Plant response rating, Giant foxtail: 10
[2]; [25]
  Giant foxtail plant response rating: 0
[2]; [26]
  Giant foxtail plant response rating: 8
[2]; [27]
  Giant foxtail plant response rating: 8
[2]; [28]
  Giant foxtail plant response rating: 10
[2]; Rate 250 g/ha, Postemergence
  Plant response rating (0 to 10; 0 is no effect, 10 is complete control), Giant foxtail: 8
[2]; [29]
  Giant foxtail plant response rating: 9
[3]; [21]
  Crabgrass plant response rating: 2
[3]; [22]
  Crabgrass plant response rating: 9
[3]; [23]
  Crabgrass plant response rating: 10
[3]; [24]
  Plant response rating, Crabgrass: 10
[3]; [25]
  Crabgrass plant response rating: 0
[3]; [26]
  Crabgrass plant response rating: 5
[3]; [27]
  Crabgrass plant response rating: 8
[3]; [28]
  Crabgrass plant response rating: 10
[3]; [29]
  Crabgrass plant response rating: 8
[4]; [21]
  Nutsedge plant response rating: 0
[4]; [22]
  Nutsedge plant response rating: 7
[4]; [23]
  Nutsedge plant response rating: 8
[4]; [24]
  Plant response rating, Nutsedge: 10
[4]; [25]
  Nutsedge plant response rating: 0
[4]; [26]
  Nutsedge plant response rating: 0
[4]; [27]
  Nutsedge plant response rating: 0
[4]; [28]
  Nutsedge plant response rating: 7
[4]; Rate 250 g/ha, Postemergence
  Plant response rating (0 to 10; 0 is no effect, 10 is complete control), Nutsedge: 0
[4]; [29]
  Nutsedge plant response rating: 2
[5]; [17]
  Barnyardgrass plant response rating: 0
[5]; [18]
  Barnyardgrass plant response rating: 0
[5]; [19]
  Barnyardgrass plant response rating: 0
[5]; [20]
  Barnyardgrass plant response rating: 0
[6]; [21]
  B. signalgrass plant response rating: 0
[6]; [22]
  B. signalgrass plant response rating: 1
[6]; Preemergence, Rate 250 g/ha, scale 0 to 10, 0 is no effect, 10 is complete control
  B. signalgrass plant response rating: 7
[6]; [24]
  Plant response rating, B. signalgrass: 7
[6]; [25]
  B. signalgrass plant response rating: 0
[6]; [26]
  B. signalgrass plant response rating: 2
[6]; Rate 125 g/ha, Postemergence, scale 0 (no effect) to 10 (complete control)
  B. signalgrass plant response rating: 5
[6]; [28]
  B. signalgrass plant response rating: 7
[6]; Rate 250 g/ha, Postemergence
  Plant response rating (0 to 10; 0 is no effect, 10 is complete control), B. signalgrass: 5
[6]; [29]
  B. signalgrass plant response rating: 9
[7]; [21]
  Sugarbeets plant response rating: 0
[7]; [22]
  Sugarbeets plant response rating: 0
[7]; [23]
  Sugarbeets plant response rating: 5
[7]; [24]
  Plant response rating, Sugarbeets: 6
[7]; [26]
  Sugarbeets plant response rating: 0
[7]; [27]
  Sugarbeets plant response rating: 0
[7]; [28]
  Sugarbeets plant response rating: 2
[7]; Rate 250 g/ha, Postemergence
  Plant response rating (0 to 10; 0 is no effect, 10 is complete control), Sugarbeets: 3
[7]; [29]
  Sugarbeets plant response rating: 2
[8]; [21]
  Blackgrass plant response rating: 0
[8]; [22]
  Blackgrass plant response rating: 2
[8]; [23]
  Blackgrass plant response rating: 10
[8]; [24]
  Plant response rating, Blackgrass: 10
[8]; [25]
  Blackgrass plant response rating: 0
[8]; [26]
  Blackgrass plant response rating: 6
[8]; [27]
  Blackgrass plant response rating: 9
[8]; [28]
  Blackgrass plant response rating: 10
[8]; Rate 250 g/ha, Postemergence
  Plant response rating (0 to 10; 0 is no effect, 10 is complete control), Blackgrass: 9
[8]; [29]
  Blackgrass plant response rating: 8
[9]; [22]
  Bedstraw plant response rating: 0
[9]; [23]
  Bedstraw plant response rating: 0
[9]; [24]
  Plant response rating, Bedstraw: 2
[9]; [26]
  Bedstraw plant response rating: 0
[9]; [27]
  Bedstraw plant response rating: 0
[9]; [28]
  Bedstraw plant response rating: 0
[9]; Rate 250 g/ha, Postemergence
  Plant response rating (0 to 10; 0 is no effect, 10 is complete control), Bedstraw: 0
[9]; [29]
  Bedstraw plant response rating: 0
[10]; [21]
  Corn plant response rating: 0
[10]; [22]
  Corn plant response rating: 0
[10]; [23]
  Corn plant response rating: 4
[10]; [24]
  Plant response rating, Corn: 6
[10]; [25]
  Corn plant response rating: 0
[10]; [26]
  Corn plant response rating: 0
[10]; [27]
  Corn plant response rating: 2
[10]; [28]
  Corn plant response rating: 3
[10]; Rate 250 g/ha, Postemergence
  Plant response rating (0 to 10; 0 is no effect, 10 is complete control), Corn: 2
[10]; [29]
  Corn plant response rating: 6
[11]; [17]
  S. Flatsedge plant response rating: 0
[11]; [18]
  S. Flatsedge plant response rating: 0
[11]; [19]
  S. Flatsedge plant response rating: 0
[11]; [20]
  S. Flatsedge plant response rating: 0
[12]; [21]
  Morningglory plant response rating: 0
[12]; [22]
  Morningglory plant response rating: 0
[12]; [23]
  Morningglory plant response rating: 4
[12]; [24]
  Plant response rating, Morningglory: 8
[12]; [25]
  Morningglory plant response rating: 2
[12]; [26]
  Morningglory plant response rating: 2
[12]; [27]
  Morningglory plant response rating: 3
[12]; [28]
  Morningglory plant response rating: 4
[12]; Rate 250 g/ha, Postemergence
  Plant response rating (0 to 10; 0 is no effect, 10 is complete control), Morningglory: 6
[12]; [29]
  Morningglory plant response rating: 6
[13]; [21]
  Wheat plant response rating: 0
[13]; [22]
  Wheat plant response rating: 5
[13]; [23]
  Wheat plant response rating: 8
[13]; [24]
  Plant response rating, Wheat: 8
[13]; [26]
  Wheat plant response rating: 3
[13]; [27]
  Wheat plant response rating: 6
[13]; [28]
  Wheat plant response rating: 6
[13]; Rate 250 g/ha, Postemergence
  Plant response rating (0 to 10; 0 is no effect, 10 is complete control), Wheat: 7
[13]; [29]
  Wheat plant response rating: 8
[14]; [21]
  Redroot pigweed plant response rating: 6
[14]; [22]
  Redroot pigweed plant response rating: 6
[14]; [23]
  Redroot pigweed plant response rating: 10
[14]; [24]
  Plant response rating, Redroot pigweed: 10
[14]; [25]
  Redroot pigweed plant response rating: 0
[14]; [26]
  Redroot pigweed plant response rating: 0
[14]; [27]
  Redroot pigweed plant response rating: 0
[14]; [28]
  Redroot pigweed plant response rating: 7
[14]; Rate 250 g/ha, Postemergence
  Plant response rating (0 to 10; 0 is no effect, 10 is complete control), Redroot pigweed: 0
[14]; [29]
  Redroot pigweed plant response rating: 2
[15]; [21]
  Rape plant response rating: 0
[15]; [22]
  Rape plant response rating: 0
[15]; [23]
  Rape plant response rating: 0
[15]; [24]
  Plant response rating, Rape: 6
[15]; [25]
  Rape plant response rating: 0
[15]; [26]
  Rape plant response rating: 0
[15]; [27]
  Rape plant response rating: 0
[15]; [28]
  Rape plant response rating: 0
[15]; Rate 250 g/ha, Postemergence
  Plant response rating (0 to 10; 0 is no effect, 10 is complete control), Rape: 0
[15]; [29]
  Rape plant response rating: 2
[16]; [21]
  Wild oats plant response rating: 0
[16]; [22]
  Wild oats plant response rating: 4
[16]; [23]
  Wild oats plant response rating: 10
[16]; [24]
  Plant response rating, Wild oats: 10
[16]; [26]
  Wild oats plant response rating: 0
[16]; [27]
  Wild oats plant response rating: 2
[16]; [28]
  Wild oats plant response rating: 7
[16]; Rate 250 g/ha, Postemergence
  Plant response rating (0 to 10; 0 is no effect, 10 is complete control), Wild oats: 3
[16]; [29]
  Wild oats plant response rating: 2
